The target in assay [1] is Adrenergic receptors; alpha-1 A & B (Homo sapiens) (UniProt P35348+P35368). Description: Ratio of binding affinity of compound to human adrenergic receptor alpha-1b to that of human adrenergic receptor alpha-1a. The assay is classed as protein assay.
In assay [2] the target is T1, Alpha-1A adrenergic receptor (Homo sapiens, UniProt P35348).
T1 sequence (P35348 whole entry): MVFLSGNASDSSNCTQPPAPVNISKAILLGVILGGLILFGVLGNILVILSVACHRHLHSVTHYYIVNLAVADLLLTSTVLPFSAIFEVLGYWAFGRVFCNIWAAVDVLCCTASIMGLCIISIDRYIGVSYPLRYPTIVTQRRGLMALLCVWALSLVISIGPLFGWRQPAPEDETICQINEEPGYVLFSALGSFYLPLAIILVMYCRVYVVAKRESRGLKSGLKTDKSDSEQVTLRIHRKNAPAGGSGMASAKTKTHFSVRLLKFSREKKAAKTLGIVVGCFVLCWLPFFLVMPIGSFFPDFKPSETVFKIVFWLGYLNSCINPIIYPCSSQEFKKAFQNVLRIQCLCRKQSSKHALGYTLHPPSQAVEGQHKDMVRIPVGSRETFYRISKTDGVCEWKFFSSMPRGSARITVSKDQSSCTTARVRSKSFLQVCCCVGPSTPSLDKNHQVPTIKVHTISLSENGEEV
Description: Compound was evaluated for its binding affinity to COS cell membrane expressing the human Alpha-1A adrenergic receptor. It is filed as cell membranes.

In assay [3] the target is Alpha adrenergic receptor (1a and 1d) (Homo sapiens) (UniProt P35348+P25100). The assay can be described thus: Ratio of binding affinity of compound to human adrenergic receptor alpha-1d to that of human adrenergic receptor alpha-1a. It is filed as protein assay.
Assay [4] addresses T2, Alpha-1B adrenergic receptor (Homo sapiens, UniProt P35368).
T2 sequence (P35368 whole entry): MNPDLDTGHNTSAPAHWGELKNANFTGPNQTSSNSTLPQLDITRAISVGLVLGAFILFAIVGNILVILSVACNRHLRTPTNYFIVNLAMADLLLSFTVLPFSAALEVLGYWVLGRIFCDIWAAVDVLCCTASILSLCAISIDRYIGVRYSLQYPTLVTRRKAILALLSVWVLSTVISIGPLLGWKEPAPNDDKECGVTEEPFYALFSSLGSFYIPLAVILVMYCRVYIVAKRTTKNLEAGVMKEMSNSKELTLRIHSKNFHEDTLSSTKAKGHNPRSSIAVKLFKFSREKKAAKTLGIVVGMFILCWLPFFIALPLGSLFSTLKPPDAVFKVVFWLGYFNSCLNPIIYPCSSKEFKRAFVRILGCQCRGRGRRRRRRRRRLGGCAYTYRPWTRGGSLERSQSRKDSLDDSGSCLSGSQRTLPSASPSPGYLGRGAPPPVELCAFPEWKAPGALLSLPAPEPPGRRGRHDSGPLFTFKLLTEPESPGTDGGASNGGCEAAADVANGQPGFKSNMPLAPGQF
The assay can be described thus: Compound was evaluated for its binding affinity towards COS cell membrane expressing the human Alpha-1B adrenergic receptor. It is filed as cell membranes.

Assay [5] deals with T3, Alpha-1D adrenergic receptor (Homo sapiens, UniProt P25100).
T3 sequence (P25100 whole entry): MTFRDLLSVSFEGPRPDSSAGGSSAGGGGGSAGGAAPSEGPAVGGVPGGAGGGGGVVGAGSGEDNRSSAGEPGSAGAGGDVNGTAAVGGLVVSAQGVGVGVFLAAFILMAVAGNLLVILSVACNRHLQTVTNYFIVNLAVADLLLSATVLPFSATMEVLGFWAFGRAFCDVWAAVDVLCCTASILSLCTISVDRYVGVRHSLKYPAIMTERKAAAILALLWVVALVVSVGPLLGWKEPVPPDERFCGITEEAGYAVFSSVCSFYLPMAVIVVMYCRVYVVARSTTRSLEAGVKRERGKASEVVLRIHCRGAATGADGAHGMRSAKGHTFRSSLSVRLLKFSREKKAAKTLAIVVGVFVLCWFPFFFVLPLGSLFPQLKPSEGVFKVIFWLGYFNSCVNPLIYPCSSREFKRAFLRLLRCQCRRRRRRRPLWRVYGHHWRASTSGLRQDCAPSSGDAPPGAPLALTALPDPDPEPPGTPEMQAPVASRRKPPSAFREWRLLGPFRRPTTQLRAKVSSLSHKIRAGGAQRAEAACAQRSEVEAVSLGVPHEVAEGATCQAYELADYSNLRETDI
The assay can be described thus: Compound was evaluated for its binding affinity to COS cell membrane expressing the human Alpha-1D adrenergic receptor. The assay is classed as cell membranes.

We go through six compounds from ChEMBL document CHEMBL1132787, “Novel heterocycles as selective alpha1-adrenergic receptor antagonists” (Bioorg Med Chem Lett, 2000).

A word on the Ki: it is the dissociation constant of the complex between target and ligand, obtained from inhibition or displacement. A high value points to lower affinity. Turning to `CC(C)Oc1ccccc1N1CCN(CC2=NOC(CN3CCCCC3=O)C2)CC1` (stereo not given), the Ratio in assay [1] is over 112; in assay [3], 17. Besides, the values for the Ki in assay [2], in assay [4] and in assay [5] were 89 nM, over 10000 nM and 1520 nM, respectively.

Consider `CC(C)Oc1ccccc1N1CCN(Cc2cc(CN3CCCCC3=O)n(C)n2)CC1`, for which the figures for the Ratio in assay [1] and in assay [3] were 832 and 14, respectively. Further, the Ki in assay [2] was 3.7 nM; in assay [4] it was 3080 nM; in assay [5] it was 52 nM.

Take `CC(C)Oc1ccccc1N1CCN(Cc2cc(CN3CCCCC3=O)nn2C)CC1`: the Ratio in assay [1] came out at 308; in assay [3] it was 5. Further, the Ki in assay [2] was 9 nM; in assay [4], 2770 nM; in assay [5], 44 nM.

With `CC(C)Oc1ccccc1N1CCN(Cc2cc(CN3CCCCC3=O)n[nH]2)CC1`, the Ratio in assay [1] is 1860; in assay [3], 84. Further, the Ki was determined as 2.1 nM in assay [2], 3920 nM in assay [4] and 177 nM in assay [5].

Consider `CC(C)Oc1ccccc1N1CCN(Cc2cc(CN3CCCCC3=O)nc(N)n2)CC1`, for which the Ratio in assay [1] and in assay [3] was over 127 throughout. The values for the Ki in assay [2], in assay [4] and in assay [5] were 79 nM, over 10000 nM and over 10000 nM, respectively.

For the compound `CC(C)Oc1ccccc1N1CCN(Cc2cc(CN3CCCCC3=O)on2)CC1`, the Ratio came out at 1170 in assay [1] and 72 in assay [3]. For the same compound, the Ki in assay [2] amounted to 3.8 nM; in assay [4], 4460 nM; in assay [5], 272 nM.
